We go through one compound from patent publication US8809344B2, “Compounds, compositions, and methods for control of hepatitis C viral infections” (priority 2008, dated 2014).

Where only a bound is given, the exact number is not on record here.

In data set [1] the test system is subgenomic genotype 2a replicon (J6 and JFH1 strains). Description: Genotype 2a hRluc replicon assay in Huh7 cells, Renilla luciferase readout. The following applies: Hepatitis C virus, Huh-7, 48 h. Format: cell-based. Here is the method:
(§1) Inhibition of HCV replication by compound AP0080978 (enantiomer 2 from Example 1) was also assayed by exposing cells harboring either HCV genotype 1a, HCV genotype 1b, HCV genotype 2a replicons. […] Final DMSO percentage was 1% in a total volume of 1 ml. After a 72 hour treatment period, total RNA was extracted, quantified via RiboGreen™ assay (Invitrogen-Molecular Probes, Eugene, Oreg., USA), and equivalent amounts of RNA were subjected to quantitative RT-PCR to quantify HCV RNA levels. Activity against genotype 1b was re-confirmed using Clone II cells (U.S. Pat. No. 7,049,428) that contain a stable subgenomic replicon (Con1 strain) with a Arg 1164 Gly adaptive mutation that is distinct from the Ser 1179 Ile adaptive mutation present in Clone VI cells. In this assay, cells were seeded into 96-well plates and treated in quadruplicate with varying concentration of compounds for 72 hours. For each replicate culture, HCV RNA levels were measured by blot hybridization and normalized to β-actin RNA levels. Cytotoxicity was measured using an established neutral red dye uptake assay (Korba and Gerin (1992) Antiviral Res 19:55; Okuse et al (2005) Antiviral Res 65: 23). […] Activity and toxicity against genotype 2a was evaluated in Huh7 cells harboring a stable hRluc-containing subgenomic genotype 2a replicon containing sequence from both J6 and JFH1 strains. […]

The test system of data set [2] is stable genotype 1b subgenomic replicon (Con1 strain). The data set is described as follows: Clone II cells, HCV RNA by blot hybridization normalized to β-actin RNA. Type of data set: cell-based. The following applies: Hepatitis C virus, 72 h. Here is the method: as §1
Data set [3] can be described thus: Neutral red dye uptake cytotoxicity assay. The following applies: human, Experiment 3. Type of data set: cell-based. Here is the method:
as §1

In data set [4] the test system is stable genotype 1b (Con1 strain) subgenomic replicon in control Clone A cells. The data set is described as follows: Control Clone A cells, HCV RNA by quantitative RT-PCR. Type of data set: cell-based. The following applies: Hepatitis C virus, 72 h. The protocol: In an effort to gain insight into the target of 80978, Clone A cells were selected for resistance to 80978. Clone A cells are a human hepatoma cell line that contains a stable genotype 1b (Con1 strain) subgenomic replicon. Cells were cultured for 12 days in medium containing 10 μM 80978 and 1 mg/ml Geneticin™ (Invitrogen). Medium was changed every 3-4 days to replenish compound, and cells were split as needed to maintain subconfluent cultures. After 12 days of growth in the presence of 10 μM 80978, the concentration of 80978 was increased to 20 μM and cultured for an additional 19 days. Control Clone A cells were grown in parallel in the presence of diluent only. After this culture period, cells were evaluated for response to 80978.
Control cells and cells that had been cultured in the presence of 80978 were treated in triplicate with 3-fold serial dilutions of compound for 72 hours. At the end of this incubation period, total RNA was extracted, and HCV RNA levels were measured by quantitative RT-PCR using primers that recognize the 3′NTR.

Data set [5] relates to parental genotype 1b (Con1 strain) subgenomic reporter replicon. The data set is described as follows: Parental genotype 1b reporter replicon IVT RNA in Huh7.5 cells. Type of data set: cell-based. Conditions: Hepatitis C virus. An excerpt:
(§2) To identify nucleotide changes that confer resistance to 80978, replicon RNA was reverse transcribed and amplified from total RNA extracted from 80978-resistant and control Clone A cells. […] One silent mutation at amino acid 1771 was also observed. Each mutation was introduced independently into a stable genotype 1b (Con1 strain) subgenomic reporter replicon plasmid via site-directed mutagenesis. […] The sequence of the wild type NS4B encoding sequence is provided as SEQ ID NO:1, the sequence of the mutated NS4B nucleotide sequence encoding the F1809V mutation is provided as SEQ ID NO:3, and the sequence of the mutated NS4B nucleotide sequence encoding the F1809L mutation is provided as SEQ ID NO:5. The sequence of the wild type NS4B protein is provided as SEQ ID NO:2, the sequence of the mutated NS4B protein with the F1809V mutation is provided as SEQ ID NO:4, and the sequence of the mutated NS4B nucleotide sequence encoding the F1809L mutation is provided as SEQ ID NO:6. […] A differential response was observed between cells electroporated with different replicon RNAs.

Data set [6] concerns genotype 1b (Con1 strain) replicon with NS4B F1809L mutation. Description: F1809L mutant reporter replicon IVT RNA in Huh7.5 cells. Type of data set: cell-based. The following applies: Hepatitis C virus.
From the text: as §2
(Replicon systems follow genome replication, usually without infectious particles.)

Data set [7] relates to genotype 1b (Con1 strain) replicon with NS4B S1949Y mutation. The data set is described as follows: S1949Y mutant reporter replicon IVT RNA in Huh7.5 cells. Format: cell-based. Conditions: Hepatitis C virus.
From the text: as §2

Data set [8] deals with genotype 1b (Con1 strain) replicon with silent mutation at amino acid 1771. Description: Silent-mutation reporter replicon IVT RNA in Huh7.5 cells. The following applies: Hepatitis C virus. Format: cell-based.
From the text: as §2

For data set [9], the system named is genotype 2a replicon encoding genotype 1b NS4B amino acids 53 to 218. Description: Chimeric genotype 1b/2a replicon (NS4B aa 53 to 218 from 1b) in Huh7.5 cells. Format: cell-based, hepatitis C virus. An excerpt:
That NS4B is the target of 80978 was confirmed by a complementary approach. The differential response to 80978 by HCV genotype 1b and 2a replicons allowed the use of chimeric replicons to narrow down the region of the HCV genotype 1b NS4B coding region that confers sensitivity to 80978. The nucleotide sequence of the wild type HCV genotype 2a NS4B is provided as SEQ ID NO: 7 and the wild type HCV genotype 2a NS4B protein sequence is provided as SEQ ID NO:8. Using a plasmid containing an 80978-resistant stable HCV genotype 2a subgenomic reporter replicon cDNA, six replacement, or chimeric constructs were made, where the regions encoding the following amino acids of NS4B were replaced with the regions encoding the corresponding amino acids of NS4B from HCV genotype 1b: (i) 7-254, (ii) 7-52, (iii) 53-254, (iv) 219-254, (v) 7-52 and 219-254, and (vi) 53 to 218. The full-length NS4B protein is 261 amino acids in length and is provided as SEQ ID NO:2. Thus, if any of these segments of NS4B from genotype 1b are sufficient to confer 80978-sensitivity to a genotype 2a HCV replicon, it will render the chimeric genotype 1b/genotype 2a replicon sensitive to the compound.
Response to 80978 was measured initially in unselected cells. […] All of the chimeric and wild type control constructs were responsive to Cyclosporin A (CsA).

For orientation: EC50 means the concentration giving half of the maximal effect. A word on the CC50: it is the concentration that lowers cell viability or growth by half. Regarding `O=C(NCc1cccs1)c1nn2c(c1Cl)N[C@H](c1ccco1)C[C@@H]2C(F)(F)F` (single isomer, unassigned) [Compound 80978], the half-maximal effective concentration (EC50) was more than 25 µM in data set [1]; 7.3 µM in data set [2]; 1.76 µM in data set [4]; 0.29 µM in [5]; more than 22.5 µM in [6]; 0.41 µM in [7]. Also, the EC50 is 0.24 µM in data set [8] and less than 2.5 µM in [9] (Hepatitis C virus, Huh7.5). For the same compound, in data set [3], the CC50 at 72 h was more than 20 µM. The “response to 80978” value in data set [9] (Geneticin-selected stable replicon-containing cells, amino acids 53-218) is listed as “responsive”.
